Patent US20120178766A1, “FUROPYRIMIDINEDIONE DERIVATIVES AS TRPAI MODULATORS” (priority 2009, published 2012)

Columns and labels:
rat TRPA1 = biological target: T1, rat TRPA1 (Rattus norvegicus, UniProt Q6RI86); assay: 45Calcium uptake assay: inhibition of AITC induced cellular uptake of radioactive calcium, rat TRPA1 expressing CHO cells; assay type: cell-based; conditions: AITC 10 μM; for inhibition at 10 µM: 10.0 μM compound, read-out: rat TRPA1 Percentage inhibition at 10.0 μM; for inhibition at 1 µM: read-out: rat TRPA1 Percentage inhibition; for IC50: class symbols
T1 construct: expressed in transfected cells; host or cells: CHO cells (Zeocin selection)
Method: (§1) Screening for TRPA1 Antagonist Using the ^45Calcium Uptake Assay:
(§2) The inhibition of TRPA1 receptor activation was measured as inhibition of allyl isothiocyanate (AITC) induced cellular uptake of radioactive calcium.
Test compounds were dissolved in 100% DMSO to prepare 10 mM stock and then diluted using plain medium with 0.1% BSA and 1.8 mM CaCl2 to get the desired concentration. The final concentration of DMSO in the reaction was 0.5% (v/v). […] Rat TRPA1 expressing CHO cells were grown in F-12 DMEM medium with 10% FBS, 1% penicillin-streptomycin solution, and 400 μg/ml of Zeocin. […] Cells were treated with the test compounds for 10 minutes followed by the addition of AITC at a final concentration of 30 μM (for human TRPA1) and/or 10 μM (for rat TRPA1) and 5 μCi/ml ^45Ca^+2 for 3 minutes. Cells were washed and lysed using a buffer containing 1% Triton X-100, 0.1% deoxycholate and 0.1% SDS. Radioactivity in the lysate was measured in a Packard TopCount after addition of liquid scintillant.
(§3) Concentration response curves were plotted as a % of maximal response obtained in the absence of test antagonist. IC50 values can be calculated from concentration response curve by nonlinear regression analysis using GraphPad PRISM software.

human TRPA1 = biological target: T2, human TRPA1 (Homo sapiens, UniProt O75762); assay: 45Calcium uptake assay: inhibition of AITC induced cellular uptake of radioactive calcium, human TRPA1 expressing CHO cells; assay type: cell-based; conditions: AITC 30 μM; for inhibition at 1 µM: 1.0 μM compound, read-out: human TRPA1 Percentage inhibition at 1.0 μM; for inhibition at 10 µM: 10.0 μM compound, read-out: human TRPA1 Percentage inhibition at 10.0 μM
T2 construct: expressed in transfected cells; host or cells: CHO cells (G-418 selection)
Excerpt: The illustrative examples of the present invention are screened for TRPA1 activity according to a modified procedure described in (a) Tóth, A. et al. Life Sciences, 2003, 73, 487-498. (b) McNamara C, R. et al, Proc. Natl. Acad. Sci. U.S.A., 2007, 104, 13525-13530. The screening of the compounds can be carried out by other methods and procedures known to persons skilled in the art.
as §1, §2
Test compounds were dissolved in 100% DMSO to prepare 10 mM stock and then diluted using plain medium with 0.1% BSA and 1.8 mM CaCl2 to get the desired concentration. The final concentration of DMSO in the reaction was 0.5% (v/v). Human TRPA1 expressing CHO cells were grown in F-12 DMEM medium with 10% FBS, 1% penicillin-streptomycin solution, and 400 μg/ml of G-418. Rat TRPA1 expressing CHO cells were grown in F-12 DMEM medium with 10% FBS, 1% penicillin-streptomycin solution, and 400 μg/ml of Zeocin. Cells were seeded 24 h prior to the assay in 96 well plates so as to get ˜50,000 cells per well on the day of experiment. Cells were treated with the test compounds for 10 minutes followed by the addition of AITC at a final concentration of 30 μM (for human TRPA1) and/or 10 μM (for rat TRPA1) and 5 μCi/ml ^45Ca^+2 for 3 minutes. Cells were washed and lysed using a buffer containing 1% Triton X-100, 0.1% deoxycholate and 0.1% SDS. Radioactivity in the lysate was measured in a Packard TopCount after addition of liquid scintillant. (Toth et al, Life Sciences (2003) 73, 487-498; McNamara C R et al, Proceedings of the National Academy of Sciences, (2007) 104, 13525-13530).
as §3

T1 sequence (Q6RI86 whole entry): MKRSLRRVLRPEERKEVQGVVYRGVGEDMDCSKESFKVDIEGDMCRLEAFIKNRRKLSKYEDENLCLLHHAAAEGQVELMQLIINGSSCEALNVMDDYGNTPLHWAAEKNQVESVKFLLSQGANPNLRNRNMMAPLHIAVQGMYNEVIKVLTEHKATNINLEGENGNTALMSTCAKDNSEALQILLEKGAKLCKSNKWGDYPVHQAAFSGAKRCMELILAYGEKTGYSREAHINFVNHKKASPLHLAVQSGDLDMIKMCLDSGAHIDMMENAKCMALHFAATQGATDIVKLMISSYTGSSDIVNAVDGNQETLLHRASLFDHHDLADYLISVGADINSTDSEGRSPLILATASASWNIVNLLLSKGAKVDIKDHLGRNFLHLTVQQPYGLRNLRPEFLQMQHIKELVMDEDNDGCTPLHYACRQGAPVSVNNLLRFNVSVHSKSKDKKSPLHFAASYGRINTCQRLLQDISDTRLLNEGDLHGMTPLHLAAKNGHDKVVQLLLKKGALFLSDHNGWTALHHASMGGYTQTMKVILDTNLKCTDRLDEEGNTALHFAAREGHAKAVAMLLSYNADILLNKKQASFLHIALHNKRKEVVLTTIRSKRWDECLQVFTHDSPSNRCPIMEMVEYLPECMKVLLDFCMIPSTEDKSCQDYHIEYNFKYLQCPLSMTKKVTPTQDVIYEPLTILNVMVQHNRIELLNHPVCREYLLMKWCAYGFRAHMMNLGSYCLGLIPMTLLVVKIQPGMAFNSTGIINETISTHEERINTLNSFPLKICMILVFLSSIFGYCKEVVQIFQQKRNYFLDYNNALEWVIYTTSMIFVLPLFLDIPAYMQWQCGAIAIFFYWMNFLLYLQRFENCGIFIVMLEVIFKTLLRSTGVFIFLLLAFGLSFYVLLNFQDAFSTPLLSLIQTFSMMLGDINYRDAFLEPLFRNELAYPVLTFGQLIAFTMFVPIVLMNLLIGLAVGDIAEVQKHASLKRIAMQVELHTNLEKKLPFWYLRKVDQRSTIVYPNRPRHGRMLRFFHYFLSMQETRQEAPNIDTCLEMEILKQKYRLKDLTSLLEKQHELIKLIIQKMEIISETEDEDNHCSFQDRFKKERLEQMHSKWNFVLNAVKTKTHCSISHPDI
T2 sequence (O75762 whole entry): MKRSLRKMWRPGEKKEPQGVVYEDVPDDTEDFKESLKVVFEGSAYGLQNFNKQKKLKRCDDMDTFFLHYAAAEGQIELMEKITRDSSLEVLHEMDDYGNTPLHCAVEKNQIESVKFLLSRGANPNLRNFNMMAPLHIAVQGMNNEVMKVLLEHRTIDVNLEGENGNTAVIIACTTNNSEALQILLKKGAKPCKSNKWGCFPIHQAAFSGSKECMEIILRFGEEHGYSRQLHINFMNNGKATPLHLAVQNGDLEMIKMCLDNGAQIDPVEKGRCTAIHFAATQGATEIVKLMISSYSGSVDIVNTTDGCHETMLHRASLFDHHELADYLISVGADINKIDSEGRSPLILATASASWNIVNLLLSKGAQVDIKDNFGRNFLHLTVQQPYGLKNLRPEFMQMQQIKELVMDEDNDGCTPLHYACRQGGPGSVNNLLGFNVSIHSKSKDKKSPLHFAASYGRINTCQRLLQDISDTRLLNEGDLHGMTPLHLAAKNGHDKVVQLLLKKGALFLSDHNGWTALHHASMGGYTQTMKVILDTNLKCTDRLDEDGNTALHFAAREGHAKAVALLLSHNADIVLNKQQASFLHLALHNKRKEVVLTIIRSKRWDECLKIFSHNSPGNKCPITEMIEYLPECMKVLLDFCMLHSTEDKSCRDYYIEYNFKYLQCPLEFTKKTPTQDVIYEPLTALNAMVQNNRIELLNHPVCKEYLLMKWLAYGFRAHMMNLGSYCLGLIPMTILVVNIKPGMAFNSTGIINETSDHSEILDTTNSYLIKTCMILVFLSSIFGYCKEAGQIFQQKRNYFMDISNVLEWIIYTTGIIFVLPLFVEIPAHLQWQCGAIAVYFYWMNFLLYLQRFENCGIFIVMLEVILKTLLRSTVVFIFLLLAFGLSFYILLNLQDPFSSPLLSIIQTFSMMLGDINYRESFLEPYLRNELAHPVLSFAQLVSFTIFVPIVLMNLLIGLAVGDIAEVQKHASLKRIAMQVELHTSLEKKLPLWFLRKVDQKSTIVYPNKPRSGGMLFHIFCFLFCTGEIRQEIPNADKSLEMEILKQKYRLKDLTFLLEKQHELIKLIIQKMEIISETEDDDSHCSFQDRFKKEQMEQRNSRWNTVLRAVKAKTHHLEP

SMILES | inhibition at 10 µM (rat TRPA1) [%] | inhibition at 1 µM (rat TRPA1) [%] | IC50 (human TRPA1; class symbols) [nM] | inhibition at 1 µM (human TRPA1) [%] | inhibition at 10 µM (human TRPA1) [%] | IC50 (rat TRPA1) [nM] | IC50 (human TRPA1; numeric values) [nM]
Cn1c(=O)c2c(CC(=O)Nc3ccc(Oc4ccc(C(F)(F)F)cc4)cc3)coc2n(C)c1=O [Example 1, N1-[4-(4-Trifluoromethylphenoxy)phenyl]-2-(1,3-dimethyl-2,4-dioxo-1,2,3,4-tetrahydrofuro[2,3-d]pyrimidin-5-yl)acetamide] | 100 | 96.7 | > 100 |  |  |  | 
Cn1c(=O)c2c(CC(=O)NCCc3ccc(Cl)cc3Cl)coc2n(C)c1=O [Example 2, N1-[2-(2,4-Dichlorophenyl)ethyl]-2-(1,3-dimethyl-2,4-dioxo-1,2,3,4-tetrahydrofuro[2,3-d]pyrimidin-5-yl)acetamide] |  |  |  | 17.7 | 28.4 |  | 
Cn1c(=O)c2c(CC(=O)Nc3nc(C(F)(F)F)cs3)coc2n(C)c1=O [Example 3, N1-[4-(Trifluoromethyl)-1,3-thiazol-2-yl]-2-(1,3-Dimethyl-2,4-dioxo-1,2,3,4-tetrahydrofuro[2,3-d]pyrimidin-5-yl)acetamide] |  |  |  | 6.44 | 45.8 |  | 
Cn1c(=O)c2c(CC(=O)Nc3nc4c(F)cc(F)cc4s3)coc2n(C)c1=O [Example 4, N-(4,6-Difluoro-1,3-benzothiazol-2-yl)-2-(1,3-dimethyl-2,4-dioxo-1,2,3,4-tetrahydrofuro[2,3-d]pyrimidin-5-yl)acetamide] |  |  |  | 14.5 | 57.3 |  | 
CC(C)Cc1ccc(-c2csc(NC(=O)Cc3coc4c3c(=O)n(C)c(=O)n4C)n2)cc1 [Example 5, N1-[4-(4-Isobutylphenyl)-1,3-thiazol-2-yl]-2-(1,3-dimethyl-2,4-dioxo-1,2,3,4-tetrahydrofuro[2,3-d]pyrimidin-5-yl)acetamide] |  |  |  | 27 | 99.8 |  | 
Cn1c(=O)c2c(CC(=O)Nc3nc(-c4ccc(C(F)(F)F)cc4)cs3)coc2n(C)c1=O [Example 6, N1-{4-[4-(Trifluoromethyl)phenyl]-1,3-thiazol-2-yl}-2-(1,3-dimethyl-2,4-dioxo-1,2,3,4-tetrahydrofuro[2,3-d]pyrimidin-5-yl)acetamide] |  |  | < 50 | 100 | 99.6 |  | 
Cn1c(=O)c2c(CC(=O)Nc3nc(-c4cccc(C(F)(F)F)c4)cs3)coc2n(C)c1=O [Example 7, N1-{4-[3-(Trifluoromethyl)phenyl]-1,3-thiazol-2-yl}-2-(1,3-dimethyl-2,4-dioxo-1,2,3,4-tetrahydrofuro[2,3-d]pyrimidin-5-yl)acetamide] |  |  | < 50 | 98.8 | 99.8 |  | 
Cn1c(=O)c2c(CC(=O)Nc3nc(-c4ccc(OC(F)(F)F)cc4)cs3)coc2n(C)c1=O [Example 8, N1-[4-(4-Trifluorormethoxyphenyl)-1,3-thiazol-2-yl]-2-(1,3-dimethyl-2,4-dioxo-1,2,3,4-tetrahydrofuro[2,3-d]pyrimidin-5-yl)acetamide] | 100 | 100 | < 50 | 93.2 | 98.8 | < 50 | 
Cn1c(=O)c2c(CC(=O)Nc3nc(-c4cccc(OC(F)(F)F)c4)cs3)coc2n(C)c1=O [Example 9, N1-[4-(3-Trifluorormethoxyphenyl)-1,3-thiazol-2-yl]-2-(1,3-dimethyl-2,4-dioxo-1,2,3,4-tetrahydrofuro[2,3-d]pyrimidin-5-yl)acetamide] |  |  | < 50 | 99.3 | 100 |  | 
Cn1c(=O)c2c(CC(=O)Nc3nc(-c4ccc(F)c(Br)c4)cs3)coc2n(C)c1=O [Example 10, N1-[4-(3-Bromo-4-fluorophenyl)-1,3-thiazol-2-yl]-2-(1,3-dimethyl-2,4-dioxo-1,2,3,4-tetrahydrofuro[2,3-d]pyrimidin-5-yl)acetamide] | 100 | 97.5 | < 50 | 98.5 | 97.7 | 50 to 100 | 
Cn1c(=O)c2c(CC(=O)Nc3nc(-c4ccc(F)c(F)c4)cs3)coc2n(C)c1=O [Example 11, N1-[4-(3,4-Difluorophenyl)-1,3-thiazol-2-yl]-2-(1,3-dimethyl-2,4-dioxo-1,2,3,4-tetrahydrofuro[2,3-d]pyrimidin-5-yl)acetamide] |  |  | 50 to 100 | 98.8 | 99.4 |  | 
Cn1c(=O)c2c(CC(=O)Nc3nc(-c4ccc(F)cc4F)cs3)coc2n(C)c1=O [Example 12, N1-[4-(2,4-Difluorophenyl)-1,3-thiazol-2-yl]-2-(1,3-dimethyl-2,4-dioxo-1,2,3,4-tetrahydrofuro[2,3-d]pyrimidin-5-yl)acetamide] |  |  | > 100 | 97.9 | 98.4 |  | 
Cn1c(=O)c2c(CC(=O)Nc3nc(-c4ccc(Cl)c(Cl)c4)cs3)coc2n(C)c1=O [Example 13, N1-[4-(3,4-Dichlorophenyl)-1,3-thiazol-2-yl]-2-(1,3-dimethyl-2,4-dioxo-1,2,3,4-tetrahydrofuro[2,3-d]pyrimidin-5-yl)acetamide] |  |  | < 50 | 98.5 | 99.4 | > 100 | 
Cn1c(=O)c2c(CC(=O)Nc3nc(-c4ccc(OC(F)F)c(Br)c4)cs3)coc2n(C)c1=O [Example 25, N1-[4-(3-Bromo-4-difluoromethoxyphenyl)-1,3-thiazol-2-yl]-2-(1,3-dimethyl-2,4-dioxo-1,2,3,4-tetrahydrofuro[2,3-d]pyrimidin-5-yl)acetamide] |  |  | < 50 | 99.3 | 99.8 |  | 
CC(C)COc1ccc(-c2csc(NC(=O)Cc3coc4c3c(=O)n(C)c(=O)n4C)n2)cc1Br [Example 29, N1-[4-(3-Bromo-4-isobutoxyphenyl)-1,3-thiazol-2-yl]-2-(1,3-dimethyl-2,4-dioxo-1,2,3,4-tetrahydrofuro[2,3-d]pyrimidin-5-yl)acetamide] |  |  | > 100 | 98.6 | 99.8 |  | 
Cn1c(=O)c2c(CC(=O)Nc3nc(-c4cc(F)c(F)cc4F)cs3)coc2n(C)c1=O [Example 33, N1-[4-(2,4,5,-Trifluorophenyl)-1,3-thiazol-2-yl]-2-(1,3-dimethyl-2,4-dioxo-1,2,3,4-tetrahydrofuro[2,3-d]pyrimidin-5-yl)acetamide] |  |  | < 50 | 97.9 | 98.1 |  | 
CC(C)CCOc1c(F)cc(-c2csc(NC(=O)Cc3coc4c3c(=O)n(C)c(=O)n4C)n2)cc1F [Example 45, N1-{4-[3,5-Difluoro-4-(3-methylbutoxy)phenyl]-1,3-thiazol-2-yl}-2-(1,3-dimethyl-2,4-dioxo-1,2,3,4-tetrahydrofuro[2,3-d]pyrimidin-5-yl)acetamide] |  |  | < 50 | 90.7 | 98.1 |  | 
Cc1oc2c(c1CC(=O)Nc1nc(-c3cc(F)c(Cl)cc3Cl)cs1)c(=O)n(C)c(=O)n2C [Example 79, N1-[4-(2,4-Dichloro-5-fluorophenyl)-1,3-thiazol-2-yl]-2-(1,3,6-trimethyl-2,4-dioxo-1,2,3,4-tetrahydrofuro[2,3-d]pyrimidin-5-yl)acetamide] |  |  |  |  |  |  | 247
